Measurements: the NIST ThermoML archive (doi:10.1021/acs.jced.6b00640)
Numbers after ± are expanded uncertainties.

Experiment: refractive index (Na D-line) (dimensionless); xn = mol fraction of the nth substance listed
Details: 100 kPa, Liquid, Standard Abbe refractometry

CCOC(=O)CCC(=O)OCC [diethyl butanedioate] + CCCC(=O)OCC
refractive index (288.15 K, x2 = 0.0999): 1.4198 ± 0.0014 | refractive index (288.15 K, x2 = 0.2): 1.4177 ± 0.0014 | refractive index (288.15 K, x2 = 0.3003): 1.4154 ± 0.0014 | refractive index (288.15 K, x2 = 0.3999): 1.413 ± 0.0014 | refractive index (288.15 K, x2 = 0.5): 1.4104 ± 0.0014 | refractive index (288.15 K, x2 = 0.5997): 1.4076 ± 0.0014 | refractive index (288.15 K, x2 = 0.7): 1.4048 ± 0.0014 | refractive index (288.15 K, x2 = 0.7999): 1.4016 ± 0.0014 | refractive index (288.15 K, x2 = 0.8999): 1.3986 ± 0.0014 | refractive index (293.15 K, x2 = 0.0999): 1.4176 ± 0.0014 | refractive index (293.15 K, x2 = 0.2): 1.4155 ± 0.0014 | refractive index (293.15 K, x2 = 0.3003): 1.4132 ± 0.0014 | refractive index (293.15 K, x2 = 0.3999): 1.4107 ± 0.0014 | refractive index (293.15 K, x2 = 0.5): 1.4081 ± 0.0014 | refractive index (293.15 K, x2 = 0.5997): 1.4053 ± 0.0014 | refractive index (293.15 K, x2 = 0.7): 1.4024 ± 0.0014 | refractive index (293.15 K, x2 = 0.7999): 1.3992 ± 0.0014 | refractive index (293.15 K, x2 = 0.8999): 1.3961 ± 0.0014 | refractive index (298.15 K, x2 = 0.0999): 1.4154 ± 0.0014 | refractive index (298.15 K, x2 = 0.2): 1.4132 ± 0.0014 | refractive index (298.15 K, x2 = 0.3003): 1.4109 ± 0.0014 | refractive index (298.15 K, x2 = 0.3999): 1.4084 ± 0.0014 | refractive index (298.15 K, x2 = 0.5): 1.4058 ± 0.0014 | refractive index (298.15 K, x2 = 0.5997): 1.403 ± 0.0014 | refractive index (298.15 K, x2 = 0.7): 1.4 ± 0.0014 | refractive index (298.15 K, x2 = 0.7999): 1.3968 ± 0.0014 | refractive index (298.15 K, x2 = 0.8999): 1.3937 ± 0.0014 | refractive index (303.15 K, x2 = 0.0999): 1.4132 ± 0.0014 | refractive index (303.15 K, x2 = 0.2): 1.411 ± 0.0014 | refractive index (303.15 K, x2 = 0.3003): 1.4086 ± 0.0014 | refractive index (303.15 K, x2 = 0.3999): 1.4061 ± 0.0014 | refractive index (303.15 K, x2 = 0.5): 1.4035 ± 0.0014 | refractive index (303.15 K, x2 = 0.5997): 1.4006 ± 0.0014 | refractive index (303.15 K, x2 = 0.7): 1.3976 ± 0.0014 | refractive index (303.15 K, x2 = 0.7999): 1.3944 ± 0.0014 | refractive index (303.15 K, x2 = 0.8999): 1.3912 ± 0.0014 | refractive index (308.15 K, x2 = 0.0999): 1.411 ± 0.0014 | refractive index (308.15 K, x2 = 0.2): 1.4088 ± 0.0014 | refractive index (308.15 K, x2 = 0.3003): 1.4063 ± 0.0014 | refractive index (308.15 K, x2 = 0.3999): 1.4038 ± 0.0014 | refractive index (308.15 K, x2 = 0.5): 1.4011 ± 0.0014 | refractive index (308.15 K, x2 = 0.5997): 1.3982 ± 0.0014 | refractive index (308.15 K, x2 = 0.7): 1.3952 ± 0.0014 | refractive index (308.15 K, x2 = 0.7999): 1.392 ± 0.0014 | refractive index (308.15 K, x2 = 0.8999): 1.3888 ± 0.0014 | refractive index (313.15 K, x2 = 0.0999): 1.4088 ± 0.0014 | refractive index (313.15 K, x2 = 0.2): 1.4065 ± 0.0014 | refractive index (313.15 K, x2 = 0.3003): 1.4041 ± 0.0014 | refractive index (313.15 K, x2 = 0.3999): 1.4015 ± 0.0014 | refractive index (313.15 K, x2 = 0.5): 1.3988 ± 0.0014 | refractive index (313.15 K, x2 = 0.5997): 1.3959 ± 0.0014 | refractive index (313.15 K, x2 = 0.7): 1.3928 ± 0.0014 | refractive index (313.15 K, x2 = 0.7999): 1.3895 ± 0.0014 | refractive index (313.15 K, x2 = 0.8999): 1.3862 ± 0.0014 | refractive index (318.15 K, x2 = 0.0999): 1.4066 ± 0.0014 | refractive index (318.15 K, x2 = 0.2): 1.4043 ± 0.0014 | refractive index (318.15 K, x2 = 0.3003): 1.4018 ± 0.0014 | refractive index (318.15 K, x2 = 0.3999): 1.3992 ± 0.0014 | refractive index (318.15 K, x2 = 0.5): 1.3964 ± 0.0014 | refractive index (318.15 K, x2 = 0.5997): 1.3935 ± 0.0014 | refractive index (318.15 K, x2 = 0.7): 1.3904 ± 0.0014 | refractive index (318.15 K, x2 = 0.7999): 1.387 ± 0.0014 | refractive index (318.15 K, x2 = 0.8999): 1.3837 ± 0.0014 | refractive index (323.15 K, x2 = 0.0999): 1.4044 ± 0.0014 | refractive index (323.15 K, x2 = 0.2): 1.402 ± 0.0014 | refractive index (323.15 K, x2 = 0.3003): 1.3995 ± 0.0014 | refractive index (323.15 K, x2 = 0.3999): 1.3968 ± 0.0014 | refractive index (323.15 K, x2 = 0.5): 1.394 ± 0.0014 | refractive index (323.15 K, x2 = 0.5997): 1.391 ± 0.0014 | refractive index (323.15 K, x2 = 0.7): 1.3878 ± 0.0014 | refractive index (323.15 K, x2 = 0.7999): 1.3844 ± 0.0014 | refractive index (323.15 K, x2 = 0.8999): 1.3809 ± 0.0014
